# Experimental data taken from paper PMC10265003 (Royal Society Open Science, 2023).
# Like-named read-outs stand apart in the source and are kept apart here. Positions of bridges follow the written chain, without caps; N, C: chain ends. Non-standard residues stand in square brackets, D forms with d. Residues, ends and D or L forms follow the SMILES beside them. Chains are numbered I, II in the order given. Bpa = N[C@@H](Cc1ccc(C(=O)c2ccccc2)cc1)C(=O)O; Dip = N[C@H](C(=O)O)C(c1ccccc1)c1ccccc1; 1Nal = N[C@@H](Cc1cccc2ccccc12)C(=O)O; hPhe = N[C@@H](CCc1ccccc1)C(=O)O; Ahx = NCCCCCC(=O)O
# Legend:
# MCF-7 breast cancer line = assay type: cell-based, human
# Procedure: (§1) The MTT assay was performed in accordance with previous reports. Briefly, the cells were seeded with a complete medium in 96-well plates at a rate of 10 000 cells and 100 µl per well, and adhesion to the plates was allowed for 24 h. Later, the complete medium was removed, and an incomplete medium was added for synchronization for another 24 h. The cells were then incubated at 37°C for 2 h with 100 µl of peptide at the evaluated concentrations (200, 100, 50, 25, 12.5 and 6.25 µg ml^−1). Next, the peptide was removed from the well and 100 µl of incomplete medium with 10% MTT was added and incubated for 4 h. The medium was replaced with 100 µl of isopropanol, and after 30 min of incubation at 37°C, the absorbance was measured at 575 nm. As a negative control, an incomplete culture medium with 10% MTT was used, and as a positive control, cells without MTT treatment were used. The IC50 value was determined from figure 1 (peptide concentration versus per cent cell viability) using a nonlinear regression model with variable slope and GraphPad Prism 9 statistical analysis software.
# [1] = tested on: HeLa human cervical cancer cell line; assay type: cell-based; conditions: 2 h
# Procedure: as §1
# [2] = tested on: human primary fibroblasts; assay type: cell-based; conditions: for IC50 fibroblasts: 2 h
# Text: Rink amide resin, Fmoc-Arg(Pbf)-OH, Fmoc-Trp(Boc)-OH, Fmoc-Gln(Trt)-OH, Fmoc-Phe-OH, Fmoc-Lys(Boc)-OH, Fmoc-Leu-OH, Fmoc-Gly-OH, Fmoc-6-Ahx-OH, Fmoc-Lys(Fmoc)-OH, Triton-X, piperidine, N,N-dimethylformamide (DMF), dichloromethane (DCM), dicyclohexylcarbodiimide (DCC), 1-hydroxy-6-chloro-benzotriazole (6-Cl-HOBt), ninhydrin, potassium cyanide (KCN), ethanol, pyridine, phenol, trifluoroacetic acid (TFA), ethyl ether, triisopropylsilane (TIS), ethanedithiol (EDT), acetonitrile (ACN), methanol (MeOH) and solid phase extraction columns Supelco, Trypsin-EDTA solution and pepsin 2500 units mg^−1 were purchased from Sigma-Aldrich (St Louis, MO, USA). The non-natural amino acids diphenylalanine, 1-naphthyl-phenylalanine, 4-benzoyl-phenylalanine, homophenylalanine (hF), 4-(Fmoc-amino) benzoic acid (4-Abz) and 2-(Fmoc-amino) benzoic acid (2-Abz) were obtained from AAPPTec (Louisville, KY, USA). The cell lines MCF-7, HeLa, HEK-293 were purchased from ATCC (Manassas, VA). The primary cell culture of fibroblasts was obtained from the foreskin by the Laboratory of Cellular Physiology of the National University of Colombia, and the fibroblasts were cultured and frozen. Some vials were thawed and cultured for up to seven passes, since no transformation/immortalization was done. Annexin V and Alexa Fluor 488 conjugate was purchased from Invitrogen (Eugene, Oregon). The DMEM culture medium and trypsin were obtained from Sigma-Aldrich (St Louis, MO, USA). Bovine fetal serum was purchased from Gibco (Waltham, MA, USA). Calcium assay kit and Fluorescein CaspGLOW Active Caspase-8 or Caspase-9 Staining Kit were obtained for BD Biosciences (San Diego, CA, USA) and Invitrogen Thermo Fisher Scientific (Waltham, MA, USA), respectively.
# as §1, with “The cells were then incubated at 37°C for 2 h with 100 µl of peptide at the evaluated concentrations (200, 100, 50, 25, 12.5 and 6.25 µg ml^−1).” left out
# [3] = tested on: HEK-293 human kidney cell line; assay type: cell-based; conditions: for IC50 HEK-293: 2 h
# Procedure: as §1, with “The cells were then incubated at 37°C for 2 h with 100 µl of peptide at the evaluated concentrations (200, 100, 50, 25, 12.5 and 6.25 µg ml^−1).” left out
# human erythrocytes = assay type: cell-based
# Procedure: Haemolysis assays were performed in accordance with Cárdenas et al.. The blood was donated by healthy volunteers with blood type O^+. First, 5 ml of peripheral blood in EDTA was centrifuged at 500 r.p.m. for 15 min, and the erythrocytes were separated and washed three times with 0.9% saline solution. Then 100 µl of peptide solution (final concentrations of 200 at 6.2 µg ml^−1) was mixed with 100 µl of erythrocytes (2% haematocrit) and incubated at 37°C for 2 h. It was then centrifuged at 2500 r.p.m. for 5 min and the absorbance of the supernatant was measured at 450 nm. Two controls were used; positive control: distilled water, and negative control: saline solution 0.9%.
# pepsin = pepsin (Sus scrofa, UniProt P00791); conditions: pH 2
# Sequence of pepsin (P00791 60-385): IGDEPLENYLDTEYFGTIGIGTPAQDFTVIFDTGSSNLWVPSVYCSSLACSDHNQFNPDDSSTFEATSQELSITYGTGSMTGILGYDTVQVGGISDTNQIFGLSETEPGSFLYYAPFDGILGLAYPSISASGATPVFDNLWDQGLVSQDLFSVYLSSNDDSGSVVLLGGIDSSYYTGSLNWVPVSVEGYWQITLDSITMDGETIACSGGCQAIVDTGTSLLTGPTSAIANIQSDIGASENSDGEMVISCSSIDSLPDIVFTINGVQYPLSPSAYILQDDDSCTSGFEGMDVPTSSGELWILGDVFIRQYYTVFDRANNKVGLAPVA
# Procedure: Pepsin was dissolved in 0.010 M HCl (pH 2.0). An aliquot of 50 µl was added to each peptide solution in a 1 : 100 (w/w) ratio. The peptides were dissolved in H2O-TFA 0.05% (v/v). This was incubated at 37°C for 3 h, aliquots were taken at 0 and 3 h, and the samples were heated for 5 min and then cooled at 4°C for the thermal inactivation of pepsin and characterized via HPLC and LC-MS.
# trypsin = trypsin (Sus scrofa, UniProt P00761)
# Sequence of trypsin (P00761 9-231): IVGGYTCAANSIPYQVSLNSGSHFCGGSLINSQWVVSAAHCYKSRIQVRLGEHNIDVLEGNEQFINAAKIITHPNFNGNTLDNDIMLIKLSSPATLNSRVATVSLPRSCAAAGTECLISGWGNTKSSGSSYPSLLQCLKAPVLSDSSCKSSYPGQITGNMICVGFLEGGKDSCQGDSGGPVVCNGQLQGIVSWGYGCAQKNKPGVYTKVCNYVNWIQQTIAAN
# Procedure: Trypsin (20 μg) was dissolved in 450 µl of the buffer supplied by the manufacturer, and 50 µl was added to each peptide solution, maintaining a protease : peptide ratio of 1 : 100 (w/w). The samples were incubated at 37°C for 24 h. Aliquots were taken at 0, 5, 10, 15 and 20 min, the enzymatic reaction was stopped by adding 1 M HCl, and the mixture was analysed via RP-HPLC and LC-MS. Bovine serum albumin (BSA) and bovine lactoferrin (bLF) were used as the positive control, and the negative control was the peptide in buffer solution without trypsin.
# CD1 mice = test: Peptide toxicity in vivo model (Irwin test, survival)
# Procedure: Experiment 1. CD1 mice male (eight weeks old, weighing 33–35 g) were housed in groups of six animals per cage for each peptide ^26[F] and ^26[1-Nal]; three mice were inoculated by intraperitoneal via ip, and three mice were inoculated by subcutaneous via sc. Mice inoculated via ip or sc with saline solution were used as control. The peptide was dissolved in saline solution (7 mg ml^−1) and the mice were inoculated only one time with 0.33–0.35 ml (dosage 70 mg kg^−1) via ip or sc. Experiment 2. CD1 mice female (n = 4, eight weeks old, weighing 33–35 g) were inoculated only one time with peptide ^26[F] (dosage 140 mg kg^−1) or ^26[1-Nal] (8.8 to 70 mg kg^−1).
# To determine the toxicity of peptides ^26[F] and ^26[1-Nal] in vivo model, a preliminary study was carried out in CD1 male mice. The Irwin test was used to evaluate in qualitative manner the effect of peptide administration over motor functions, behaviour, physiology and pharmacological safety in rodents. This test is used as a first approach to study of the adverse effects generated by a pharmaceutical treatment in an in vivo model in preclinical test.
# [4] = ratio of IC50 values, in brackets
structure (smiles),measurement,setting,value
"CC(C)C[C@H](NC(=O)[C@H](CCCCN)NC(=O)[C@H](CCCCN)NC(=O)[C@@H](NC(=O)[C@H](CCCNC(=N)N)NC(=O)[C@H](Cc1c[nH]c2ccccc12)NC(=O)[C@H](CCC(N)=O)NC(=O)[C@H](Cc1c[nH]c2ccccc12)NC(=O)[C@H](CCCNC(=N)N)NC(=O)[C@@H](N)CCCNC(=N)N)C(c1ccccc1)c1ccccc1)C(=O)NCC(=O)NCCCC[C@H](NC(=O)CNC(=O)[C@H](CC(C)C)NC(=O)[C@H](CCCCN)NC(=O)[C@H](CCCCN)NC(=O)[C@@H](NC(=O)[C@H](CCCNC(=N)N)NC(=O)[C@H](Cc1c[nH]c2ccccc12)NC(=O)[C@H](CCC(N)=O)NC(=O)[C@H](Cc1c[nH]c2ccccc12)NC(=O)[C@H](CCCNC(=N)N)NC(=O)[C@@H](N)CCCNC(=N)N)C(c1ccccc1)c1ccccc1)C(=O)NCCCCCC(N)=O [^26[Dip], (RRWQWR-Dip-KKLG)2-K-Ahx] (I: H-RRWQWR[Dip]KKLGK[Ahx]-NH2 / II: H-RRWQWR[Dip]KKLG; amide I:12-II:C)",IC50,MCF-7 breast cancer line; 2 h,34 µM
"CC(C)C[C@H](NC(=O)[C@H](CCCCN)NC(=O)[C@H](CCCCN)NC(=O)[C@H](CCc1ccccc1)NC(=O)[C@H](CCCNC(=N)N)NC(=O)[C@H](Cc1c[nH]c2ccccc12)NC(=O)[C@H](CCC(N)=O)NC(=O)[C@H](Cc1c[nH]c2ccccc12)NC(=O)[C@H](CCCNC(=N)N)NC(=O)[C@@H](N)CCCNC(=N)N)C(=O)NCC(=O)NCCCC[C@H](NC(=O)CNC(=O)[C@H](CC(C)C)NC(=O)[C@H](CCCCN)NC(=O)[C@H](CCCCN)NC(=O)[C@H](CCc1ccccc1)NC(=O)[C@H](CCCNC(=N)N)NC(=O)[C@H](Cc1c[nH]c2ccccc12)NC(=O)[C@H](CCC(N)=O)NC(=O)[C@H](Cc1c[nH]c2ccccc12)NC(=O)[C@H](CCCNC(=N)N)NC(=O)[C@@H](N)CCCNC(=N)N)C(=O)NCCCCCC(N)=O [^26[hF], (RRWQWR-hF-KKLG)2-K-Ahx] (I: H-RRWQWR[hPhe]KKLGK[Ahx]-NH2 / II: H-RRWQWR[hPhe]KKLG; amide I:12-II:C)",IC50,MCF-7 breast cancer line; 2 h,18 µM
same,IC50 MCF-7,MCF-7 breast cancer line; 2 h,60(18) µg mL^−1
same,IC50 HeLa,[1],53(16) µg mL^−1
same,selectivity index IC50 fibroblasts/IC50 HeLa,[2],1.2
same,selectivity index IC50 fibroblasts/IC50 MCF-7,[2],1.0
same,IC50 fibroblasts,[2],63(19) µg mL^−1
same,IC50 HEK-293,[3],134(40) µg mL^−1
same,IC50 erythrocytes,human erythrocytes; 2 h,>200(>59) µg mL^−1
same,selectivity index IC50 erythrocytes/IC50 HeLa,human erythrocytes; 2 h,> 3.7
same,selectivity index IC50 erythrocytes/IC50 MCF-7,human erythrocytes; 2 h,> 3.3
same,proteolytic degradation by pepsin,pepsin,unaffected
same,"proteolytic degradation by trypsin, 10 min",trypsin,two fragments were also generated
"CC(C)C[C@H](NC(=O)[C@H](CCCCN)NC(=O)[C@H](CCCCN)NC(=O)[C@H](Cc1cccc2ccccc12)NC(=O)[C@H](CCCNC(=N)N)NC(=O)[C@H](Cc1c[nH]c2ccccc12)NC(=O)[C@H](CCC(N)=O)NC(=O)[C@H](Cc1c[nH]c2ccccc12)NC(=O)[C@H](CCCNC(=N)N)NC(=O)[C@@H](N)CCCNC(=N)N)C(=O)NCC(=O)NCCCC[C@H](NC(=O)CNC(=O)[C@H](CC(C)C)NC(=O)[C@H](CCCCN)NC(=O)[C@H](CCCCN)NC(=O)[C@H](Cc1cccc2ccccc12)NC(=O)[C@H](CCCNC(=N)N)NC(=O)[C@H](Cc1c[nH]c2ccccc12)NC(=O)[C@H](CCC(N)=O)NC(=O)[C@H](Cc1c[nH]c2ccccc12)NC(=O)[C@H](CCCNC(=N)N)NC(=O)[C@@H](N)CCCNC(=N)N)C(=O)NCCCCCC(N)=O [^26[1-Nal], (RRWQWR-1-Nal-KKLG)2-K-Ahx] (I: H-RRWQWR[1Nal]KKLGK[Ahx]-NH2 / II: H-RRWQWR[1Nal]KKLG; amide I:12-II:C)",IC50,MCF-7 breast cancer line; 2 h,14 µM
same,IC50 MCF-7,MCF-7 breast cancer line; 2 h,48(14) µg mL^−1
same,IC50 HeLa,[1],55(16) µg mL^−1
same,IC50 fibroblasts,[2],30(9) µg mL^−1
same,selectivity index IC50 fibroblasts/IC50 MCF-7,[2]; ratio of IC50 values,0.6
same,selectivity index IC50 fibroblasts/IC50 HeLa,[2]; [4],0.5
same,IC50 HEK-293,[3],86(25) µg mL^−1
same,selectivity index IC50 HEK-293/IC50 MCF-7,[3]; ratio of IC50 values,1.8
same,selectivity index IC50 HEK-293/IC50 HeLa,[3]; [4],1.5
same,IC50 erythrocytes,human erythrocytes; 2 h,>200(>58) µg mL^−1
same,selectivity index IC50 erythrocytes/IC50 MCF-7,human erythrocytes; ratio of IC50 values,> 4.1
same,selectivity index IC50 erythrocytes/IC50 HeLa,human erythrocytes; [4],> 3.6
same,observed signs after ip administration (Irwin test),"CD1 mice; experiment 1, male CD1 mice, ip 70 mg kg^−1",motor function decreased 30 min after peptide administration and abdominal contortions were observed
same,survival (%) ip,"CD1 mice; experiment 1, male CD1 mice, single ip dose 70 mg kg^−1, n = 3, one week of observation",33%
same,survival (%) sc,"CD1 mice; experiment 1, male CD1 mice, single sc dose 70 mg kg^−1, n = 3",100%
same,survival (%) ip,"CD1 mice; experiment 2, female CD1 mice, single ip dose 8.8 mg kg^−1, n = 3",100%
same,survival (%) ip,"CD1 mice; experiment 2, female CD1 mice, single ip dose 17.5 mg kg^−1, n = 3",100%
same,survival (%) ip,"CD1 mice; experiment 2, female CD1 mice, single ip dose 35.0 mg kg^−1, n = 3",100%
same,survival (%) ip,"CD1 mice; experiment 2, female CD1 mice, single ip dose 70.0 mg kg^−1, n = 3",100%
same,proteolytic degradation by pepsin,pepsin,unaffected
same,"proteolytic degradation by trypsin, 10 min",trypsin,"less degradation, with the majority being intact dimeric peptide"
same,"proteolytic degradation by trypsin, 3 h",trypsin,"three main species, with tR = 3.7, 5.4 min and unaffected peptide tR = 6.4 min"
"CC(C)C[C@H](NC(=O)[C@H](CCCCN)NC(=O)[C@H](CCCCN)NC(=O)[C@H](Cc1ccc(C(=O)c2ccccc2)cc1)NC(=O)[C@H](CCCNC(=N)N)NC(=O)[C@H](Cc1c[nH]c2ccccc12)NC(=O)[C@H](CCC(N)=O)NC(=O)[C@H](Cc1c[nH]c2ccccc12)NC(=O)[C@H](CCCNC(=N)N)NC(=O)[C@@H](N)CCCNC(=N)N)C(=O)NCC(=O)NCCCC[C@H](NC(=O)CNC(=O)[C@H](CC(C)C)NC(=O)[C@H](CCCCN)NC(=O)[C@H](CCCCN)NC(=O)[C@H](Cc1ccc(C(=O)c2ccccc2)cc1)NC(=O)[C@H](CCCNC(=N)N)NC(=O)[C@H](Cc1c[nH]c2ccccc12)NC(=O)[C@H](CCC(N)=O)NC(=O)[C@H](Cc1c[nH]c2ccccc12)NC(=O)[C@H](CCCNC(=N)N)NC(=O)[C@@H](N)CCCNC(=N)N)C(=O)NCCCCCC(N)=O [^26[Bpa], (RRWQWR-Bpa-KKLG)2-K-Ahx] (I: H-RRWQWR[Bpa]KKLGK[Ahx]-NH2 / II: H-RRWQWR[Bpa]KKLG; amide I:12-II:C)",IC50,"MCF-7 breast cancer line; MTT, MCF-7, peptide treatment for 2 hours at 37°C, three independent experiments with n = 4, nonlinear regression, read-out: IC50",17 µM
